Laboratory results: patent US9387221B2, “SDF-1 binding nucleic acids and the use thereof in cancer treatment” (NOXXON Pharma AG, priority 2010, dated 2016)
“Also recorded” adds a separate entry of the source. {PEG40k} = 40 kDa polyethylene glycol

Tests used:
human SDF-1α = human SDF-1α (Homo sapiens, UniProt P48061); experiment: Surface plasmon resonance measurement (Biacore 2000); format: binding; conditions: Spiegelmer (L-RNA), 37° C.
Description: The Biacore 2000 instrument (Biacore AB, Uppsala, Sweden) was used to analyze binding of Spiegelmers to human SDF-1α. When coupling of human SDF-1α was to be achieved via amine groups, human SDF-1α was dialyzed against water for 1-2 h (Millipore VSWP mixed cellulose esters; pore size, […]) to remove interfering amines. CM4 sensor chips (Biacore AB, Uppsala, Sweden) were activated before protein coupling by a 35-μl injection of a 1:1 dilution of 0.4 M NHS and 0.1 M EDC at a flow of 5 μl/min. Human MCP-1 or human SDF-1α was then injected in concentrations of 0.1-1.5 μg/ml at a flow of 2 μl/min until the instrument's response was in the range of 1000-2000 RU (relative units). Unreacted NHS esters were deactivated by injection of 35 μl ethanolamine hydrochloride solution (pH 8.5) at a flow of 5 μl/min. The sensor chip was primed twice with binding buffer and equilibrated at 10 μl/min for 1-2 hours until the baseline appeared stable. For all proteins, kinetic parameters and dissociation constants were evaluated by a series of Spiegelmer injections at concentrations of 1000, 500, 250, 125, 62.5, 31.25, and 0 nM in selection buffer (Tris-HCl, 20 mM; NaCl, 137 mM; KCl, 5 mM; CaCl2, 1 mM; MgCl2, 1 mM; Tween20, 0.1% [w/v]; pH 7.4). In all experiments, the analysis was performed at 37° C. using the Kinject command defining an association time of 180 and a dissociation time of 360 seconds at a flow of 10 μl/min. Data analysis and calculation of dissociation constants (KD) was done with the BIAevaluation 3.0 software (BIACORE AB, Uppsala, Sweden) using the Langmuir 1:1 stochiometric fitting algorithm.

Jurkat cells = experiment: Proliferation of Jurkat cells in coculture with stromal MS-5 cells; format: cell-based, human; conditions: 40 hours
Description: Aim of the experiment was to show whether SDF-1 binding Spiegelmer NOX-A12 has an impact on proliferation of leukemia cells in coculture with bone marrow (abbr. BM) stromal cells. Murine stromal MS-5 cells secreting SDF-1 were incubated with SDF-1 binding Spiegelmer NOX-A12 or the non-functional Spiegelmer revNOX-A12. The leukemic T-cell line Jurkat was added to the confluent stromal cell layer and incubated for 40 hours at 37° C. and 5% CO2. Cell numbers were quantified by Flow Cytometry using the Guava EasyCyte and ViaCount Reagent.
The murine stromal cell line MS-5 (ACC 441) were purchased from the DSMZ and were cultured in MEM alpha GlutaMAX (Invitrogen) with 10% FBS and penicillin-streptomycin. For proliferation coculture experiments stromal MS-5 cells were seeded the day before onto 24-well plates (the inner eight wells) at a concentration of 8×10^4/mL/well in MEM alpha GlutaMAX medium (+10% FBS) and incubated at 37° C. in 5% CO2. The confluent stromal cell layer was washed and 0.5 mL RPMI medium 1640 (+1% FBS) was added to the wells. […] 2×10^5 Jurkat cells (logarithmic growth phase; washed once) in RPMI medium 1640 (+1% FBS) were added to the confluent stromal cell layer and incubated for […] at 37° C. with 5% CO2. […] Cell viability and cell number were determined by Flow Cytometry using the Guava EasyCyte 6HT/2L.

SDF-1 = SDF-1 (Homo sapiens, UniProt P48061); experiment: SDF-1 dependent chemotaxis of primary chronic lymphocytic leukemia cells; format: cell-based
Human CXCR7 = experiment: CXCR7 β-arrestin complementation assay (PathHunter), CHO cells; format: cell-based; conditions: 10 nM human SDF-1, 90 minutes; read-out: IC50, CXCR7 activation (β-galactosidase)
Description: Besides CXCR4, SDF-1 also binds to the chemokine receptor CXCR7. The inhibitory potential of SDF-1-binding Spiegelmer NOX-A12 towards CXCR7 was tested in a complementation assay with CHO cells stably expressing CXCR7 and β-arrestin both fused to a fragment of β-galactosidase (PathHunter™—β-arrestin assay, DiscoveRX, CA, USA). Upon SDF-1 binding β-arrestin complexed with CXCR7 and thus led to complementation and activation of the β-galactosidase which was measured with a chemiluminescence substrate.
PathHunter eXpress CHO-K1 Human CXCR7 β-arrestin cells were plated for 48 hours in OCC2 Medium and stimulated with 10 nM SDF-1 and various concentrations of SDF-1-binding Spiegelmer NOX-A12 for 90 minutes. Following stimulation, signal was detected using the PathHUnter Detection Kit and the manufacturer's recommended protocol (DiscoveRX, CA, USA).

[1] = test system: SDF-1 induced sprouting, rings from rat aorta; experiment: Aortic ring sprouting assay; format: cell-based; conditions: 10 nM SDF-1 + 1 μM Spiegelmer, 6 days; listed as 193-G2-012-5′-PEG
Description: After 6 to 7 days, sprouting (i.e. outgrowth of endothelial cells) was analysed by taking pictures and determining a sprouting index.
Aortae from male rats were obtained from Bagheri Life sciences (Berlin, Germany). The aortae were prepared freshly and transported on ice in MCDB 131-Medium (Invitrogen, Karlsruhe, Germany) containing 50 units/ml penicillin, 50 μg/ml streptomycin (both Invitrogen, Karlsruhe, Germany) and 2.5 μg/ml fungizone (Cambrex, USA).
For an experiment a single aorta was transferred to a cell culture dish together with the medium and residual connective tissue was removed. Then the aorta was cut with a scalpel into rings of about 1 to 2 mm length. The rings were washed intensively (at least five times) in Medium199 (Invitrogen, Karlsruhe, Germany) and then placed in wells of a 24 well plate, containing 450 μl of collagen solution per well. […]
Sprouting was documented by taking pictures with a digital camera. […] Pictures were analysed with the Scion Image image processing software. […] A plot histogram along this line was generated by the software, histograms were printed and peaks (representing sprouts crossing the line) were counted. […] 4 to 5 rings per condition were evaluated. […]

Sequence of SDF-1 (P48061 22-89 limits assumed): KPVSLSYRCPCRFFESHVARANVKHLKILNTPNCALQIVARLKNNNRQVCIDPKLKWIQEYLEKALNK
Sequence of human SDF-1α (P48061 22-89): as the sequence (P48061 22-89 limits assumed) above

For “5′-40 kDa-PEG-GCGUGGUGUGAUCUAGAUGUAUUGGCUGAUCCUAGUCAGGUACGC (5' {PEG40k}, sugars by position and backbone not given here) [NOX-A12]”, the Kd (human SDF-1α) was 0.2 nM, the “effect on Jurkat cell number” value (Jurkat cells; 1 nM) was “no effect” and the “reduction of Jurkat cell number” value (Jurkat cells; 10 or 100 nM) was “up to 20%”. The “block of SDF-1 dependent chemotaxis” value (SDF-1) was “effectively blocked”, the IC50 (Human CXCR7) was 5.4 nM and the “blockage of SDF-1 induced sprouting (sprouting index)” value [1] was “significantly different from that for SDF-1; also recorded: could be blocked”.
